This passage reports T/C results from PubChem BioAssay AID248 (DTP/NCI, 2004).

The subject of this experiment is L1210 leukemia ip in BDF1 mice, survival T/C. The experiment can be described thus: NCI In Vivo Anticancer Drug Screen. Data for tumor model L1210 Leukemia (intraperitoneal) in B6D2F1 (BDF1) mice. The conditions noted are these: endpoint: mean survival time, higher = longer survival. The method, boiled down:
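Tumor cells were implanted, animals were treated, and survival was followed. The result divides the treated measurement by the vehicle-control measurement.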

The mark [1] stands for this setting: dose: 100.0 mg/kg/injection, schedule: Q04DX003 (ip), vehicle: saline with Tween-80.
[2] abbreviates: dose: 100.0 mg/kg/injection, schedule: Q01DX009 (ip), vehicle: saline with Tween-80.
Where [3] appears, read: dose: 200.0 mg/kg/injection, schedule: Q01DX009 (ip), vehicle: saline with Tween-80.
The mark [4] stands for this setting: dose: 100.0 mg/kg/injection, schedule: Q01DX001 (ip), vehicle: saline with Tween-80.
Where [5] appears, read: dose: 200.0 mg/kg/injection, schedule: Q01DX001 (ip), vehicle: saline with Tween-80.
[6] abbreviates: dose: 1.56 mg/kg/injection, schedule: Q04DX003 (ip), vehicle: saline.
The mark [7] stands for this setting: dose: 3.12 mg/kg/injection, schedule: Q04DX003 (ip), vehicle: saline.

Toxic doses and inconclusive results are not listed.

In the case of `COc1ccc2c(c1)/C(=C/CCN(C)C)c1ccccc1S2`, the T/C (dose: 6.0 mg/kg/injection, schedule: Q01DX Z (ip), vehicle: methylcellulose (MC)) was 110 % of control; the T/C (dose: 6.25 mg/kg/injection, schedule: Q01DX009 (ip), vehicle: carboxymethylcellulose (CMC)) was 97 % of control; the T/C (dose: 12.0 mg/kg/injection, schedule: Q01DX Z (ip), vehicle: methylcellulose (MC)) was 114 % of control; the T/C (dose: 12.5 mg/kg/injection, schedule: Q01DX001 (ip), vehicle: carboxymethylcellulose (CMC)) is 100 % of control; the T/C (dose: 12.5 mg/kg/injection, schedule: Q01DX009 (ip), vehicle: carboxymethylcellulose (CMC)) was 108 % of control; the T/C (dose: 12.5 mg/kg/injection, schedule: Q04DX003 (ip), vehicle: other) is 105 % of control. Further, the T/C is 104 % of control (dose: 15.0 mg/kg/injection, schedule: Q01DX Z (ip), vehicle: methylcellulose (MC)); 119 % of control (dose: 20.0 mg/kg/injection, schedule: Q01DX Z (ip), vehicle: methylcellulose (MC)); 100 % of control (dose: 25.0 mg/kg/injection, schedule: Q01DX001 (ip), vehicle: carboxymethylcellulose (CMC)); 101 % of control (dose: 25.0 mg/kg/injection, schedule: Q04DX003 (ip), vehicle: other); 114 % of control (dose: 50.0 mg/kg/injection, schedule: Q01DX001 (ip), vehicle: carboxymethylcellulose (CMC)).
Consider `Cc1nc(N)[nH]c(=O)c1CCCNc1ccc(/C=C/C(=O)CCl)cc1`, for which the T/C (dose: 50.0 mg/kg/injection, schedule: Q01DX Z (ip), vehicle: carboxymethylcellulose (CMC)) was 90 % of control; the T/C (dose: 100.0 mg/kg/injection, schedule: Q01DX Z (ip), vehicle: carboxymethylcellulose (CMC)) is 86 % of control; the T/C (dose: 200.0 mg/kg/injection, schedule: Q01DX Z (ip), vehicle: carboxymethylcellulose (CMC)) is 90 % of control; the T/C (dose: 400.0 mg/kg/injection, schedule: Q01DX Z (ip), vehicle: carboxymethylcellulose (CMC)) was 90 % of control.
With `O=C1N/C(=N\OCc2ccccc2Cl)CC(NOCc2ccccc2Cl)N1` (stereo unspecified), the T/C reads like this: under setting [1], 91 % of control; (dose: 200.0 mg/kg/injection, schedule: Q04DX003 (ip), vehicle: saline with Tween-80) 97 % of control; (dose: 400.0 mg/kg/injection, schedule: Q04DX003 (ip), vehicle: saline with Tween-80) 95 % of control.
With `C=C=CC1CCCC1C` (stereo unspecified), the T/C reads like this: (dose: 50.0 mg/kg/injection, schedule: Q01DX009 (ip), vehicle: saline with Tween-80) 110 % of control; under setting [2], 106 % of control; under setting [3], 92 % of control.
As for `CCC1C(=O)OCc2c1c(Br)cn(C)c2=O` (stereo unspecified), the T/C runs as follows: (dose: 12.5 mg/kg/injection, schedule: Q04DX003 (ip), vehicle: saline) 98 % of control; (dose: 12.5 mg/kg/injection, schedule: Q04DX003 (oral), vehicle: saline with Tween-80) 100 % of control; (dose: 25.0 mg/kg/injection, schedule: Q01DX001 (ip), vehicle: saline with Tween-80) 101 % of control; (dose: 25.0 mg/kg/injection, schedule: Q04DX003 (ip), vehicle: saline) 97 % of control; (dose: 25.0 mg/kg/injection, schedule: Q04DX003 (oral), vehicle: saline with Tween-80) 100 % of control; (dose: 50.0 mg/kg/injection, schedule: Q01DX001 (ip), vehicle: saline with Tween-80) 93 % of control. In addition, the T/C (dose: 50.0 mg/kg/injection, schedule: Q04DX003 (ip), vehicle: saline) is 108 % of control; the T/C (dose: 50.0 mg/kg/injection, schedule: Q04DX003 (oral), vehicle: saline with Tween-80) is 104 % of control; the T/C under setting [4] is 97 % of control; the T/C (dose: 100.0 mg/kg/injection, schedule: Q04DX003 (ip), vehicle: saline) was 93 % of control; the T/C (dose: 100.0 mg/kg/injection, schedule: Q04DX003 (oral), vehicle: saline with Tween-80) was 96 % of control; the T/C under setting [5] is 101 % of control.
In the case of `N#Cc1cncc(-c2ccccc2)c1`, the T/C reads like this: (dose: 25.0 mg/kg/injection, schedule: Q04DX003 (ip), vehicle: Klucel (hydroxypropylcellulose) (HPC)) 95 % of control; (dose: 50.0 mg/kg/injection, schedule: Q04DX003 (ip), vehicle: Klucel (hydroxypropylcellulose) (HPC)) 95 % of control; (dose: 100.0 mg/kg/injection, schedule: Q04DX003 (ip), vehicle: Klucel (hydroxypropylcellulose) (HPC)) 89 % of control.
With `O=P(c1c(F)c(F)c(F)c(F)c1F)(c1c(F)c(F)c(F)c(F)c1F)c1c(F)c(F)c(F)c(F)c1F`, the T/C under setting [4] was 91 % of control and the T/C under setting [5] is 91 % of control.
In the case of `CCOC(=O)NS(=O)(=O)c1ccccc1`, the T/C is 100 % of control (dose: 100.0 mg/kg/injection, schedule: Q01DX009 (ip), vehicle: Klucel (hydroxypropylcellulose) (HPC)); 101 % of control (dose: 200.0 mg/kg/injection, schedule: Q01DX009 (ip), vehicle: Klucel (hydroxypropylcellulose) (HPC)); 87 % of control (dose: 400.0 mg/kg/injection, schedule: Q01DX009 (ip), vehicle: Klucel (hydroxypropylcellulose) (HPC)).
Consider `c1ccc([P+](CCN2CCC([P+](c3ccccc3)(c3ccccc3)c3ccccc3)=N2)(c2ccccc2)c2ccccc2)cc1`, for which the T/C under setting [6] was 103 % of control and the T/C under setting [7] was 105 % of control.
As for `Cc1c(C)c(O)c(Br)c(C)c1O` (tested in a mixture with another compound), the T/C under setting [1] was 89 % of control.
On to `O=S1OCC2(CO1)COS(=O)OC2` (stereo unspecified), for which the T/C was 103 % of control (dose: 1.56 mg/kg/injection, schedule: Q01DX009 (ip), vehicle: saline); 95 % of control under setting [6]; 98 % of control (dose: 3.12 mg/kg/injection, schedule: Q01DX009 (ip), vehicle: saline); 101 % of control under setting [7]; 104 % of control (dose: 6.25 mg/kg/injection, schedule: Q04DX003 (ip), vehicle: saline).
Regarding `CN=C(NC)c1ccc(NC(=O)/C=C\c2ccc(/C=C/C(=O)Nc3ccc(C(=NC)NC)cc3)cc2)cc1`, the T/C (dose: 7.5 mg/kg/injection, schedule: Q01DX Z (oral), vehicle: saline) is 95 % of control; the T/C (dose: 15.0 mg/kg/injection, schedule: Q01DX Z (oral), vehicle: saline) was 91 % of control; the T/C (dose: 30.0 mg/kg/injection, schedule: Q01DX Z (oral), vehicle: saline) is 95 % of control; the T/C (dose: 60.0 mg/kg/injection, schedule: Q01DX Z (oral), vehicle: saline) was 103 % of control.
With `CN=C(NC)c1ccc(NC(=O)c2ccc(C(=O)Nc3ccc(C(=NC)NC)cc3)c(N)c2)cc1`, the T/C reads like this: (dose: 0.28 mg/kg/injection, schedule: Q01DX Z (ip), vehicle: water) 98 % of control; (dose: 0.56 mg/kg/injection, schedule: Q01DX Z (ip), vehicle: water) 93 % of control; (dose: 1.12 mg/kg/injection, schedule: Q01DX Z (ip), vehicle: water) 170 % of control; (dose: 2.25 mg/kg/injection, schedule: Q01DX Z (ip), vehicle: water) 157 % of control; (dose: 4.5 mg/kg/injection, schedule: Q01DX Z (ip), vehicle: carboxymethylcellulose (CMC)) 180 % of control; (dose: 9.0 mg/kg/injection, schedule: Q01DX Z (ip), vehicle: carboxymethylcellulose (CMC)) 159 % of control. The T/C was 117 % of control (dose: 36.0 mg/kg/injection, schedule: Q01DX Z (ip), vehicle: carboxymethylcellulose (CMC)); 102 % of control (dose: 50.0 mg/kg/injection, schedule: Q01DX Z (oral), vehicle: water); 105 % of control (dose: 100.0 mg/kg/injection, schedule: Q01DX Z (oral), vehicle: water); 103 % of control (dose: 200.0 mg/kg/injection, schedule: Q01DX Z (oral), vehicle: water); 103 % of control (dose: 400.0 mg/kg/injection, schedule: Q01DX Z (oral), vehicle: water).
Take `N#CCc1ccc(C(=O)O)cc1`: the T/C runs as follows: (dose: 100.0 mg/kg/injection, schedule: Q01DX001 (ip), vehicle: carboxymethylcellulose (CMC)) 106 % of control; (dose: 200.0 mg/kg/injection, schedule: Q01DX001 (ip), vehicle: carboxymethylcellulose (CMC)) 92 % of control.
Consider `CSc1ncc(C=O)c(N)n1`, for which the T/C was 100 % of control under setting [2] and 96 % of control under setting [3].
For `Fc1c(F)c(F)c(Oc2c(F)c(F)c(P(c3c(F)c(F)c(Oc4c(F)c(F)c(F)c(F)c4F)c(F)c3F)c3c(F)c(F)c(Oc4c(F)c(F)c(F)c(F)c4F)c(F)c3F)c(F)c2F)c(F)c1F`, the T/C (dose: 75.0 mg/kg/injection, schedule: Q04DX003 (ip), vehicle: Klucel (hydroxypropylcellulose) (HPC)) was 104 % of control; the T/C (dose: 150.0 mg/kg/injection, schedule: Q04DX003 (ip), vehicle: Klucel (hydroxypropylcellulose) (HPC)) is 91 % of control; the T/C (dose: 300.0 mg/kg/injection, schedule: Q04DX003 (ip), vehicle: Klucel (hydroxypropylcellulose) (HPC)) is 90 % of control.
